Reference: patent US20240050434A1, “HORMAD1 THERAPEUTICS” (Royal Cancer Hospital, priority 2020, published 2024)

How the values were obtained:
[1] = test system: RPE1 cells expressing a doxycycline-inducible HORMAD1 expression construct; assay: Mitotic slippage by time-lapse microscopy in nocodazole-arrested RPE1 cells; type: cell-based; conditions: 300 nM nocodazole arrest, then 100-200 nM reversine, 50 nM BOS172722 or AZD1152-HQPA
Protocol: A. Diagram of experimental outline. Cells were exposed to doxycycline for 3 days, arrested in mitosis using 300 nM nocodazole or 100 nM Paclitaxel. Mitotic cells were filmed every 4 minutes for 1200 minutes, and the time cells remained arrested in mitosis before exiting via mitotic slippage was assessed. […] RPE1 cells expressing a doxycycline-inducible HORMAD1 cDNA expression construct were exposed to doxycycline or vehicle (H2O) for three days at which point cells were exposed to 300 nM nocodazole and filmed every 4 minutes using time-lapse microscopy. The time individual cells remained arrested in mitosis was quantified and presented as the % of cells arrested in mitosis at each time point. Data reflects a total of 125 cells from 3 biological repeats and was analysed using Mantel-Cox test. C. […] The time individual cells remained arrested in mitosis was quantified and presented as the % of cells arrested in mitosis at each time point. Data reflects a total of 125 cells from 3 biological repeats and was analysed using Mantel-Cox test. […] H1299 cells expressing two individual, doxycycline-inducible, shRNA particles targeting HORMAD1 as well as a non-targeting control were grown for three days in the presence of doxycycline at which point cell lysates were generated and analysed by SDS-PAGE and western blotting using anti-HORMAD1 and anti-β-ACTIN antibodies. […] The time individual cells remained arrested in mitosis was quantified and presented as the % of cells arrested in mitosis at each time point. Data reflects a total of 90 cells from 3 biological repeats and was analysed using Mantel-Cox test with Bonferonni correction. […] Mitotic cells were filmed every 2 minutes for 400 minutes, and the time taken before cells exited mitosis via mitotic slippage was assessed. […] The time individual cells remained arrested in mitosis was quantified and presented as the % of cells arrested in mitosis at each time point. […] The time individual cells remained arrested in mitosis was quantified and presented as the % of cells arrested in mitosis at each time point. […]

[2] = test system: RPE1 cells expressing a doxycycline-inducible HORMAD1 construct; assay: Cell viability by cell titre glo in RPE1 cells with doxycycline-inducible HORMAD1; type: cell-based
Protocol: RPE1 cells expressing a doxycycline-inducible HORMAD1 construct were treated with doxycycline or vehicle. […] Six days post HORMAD1 induction and 5 days post drug, cell viability was estimated using cell titre glo reagent. Surviving fractions were calculated (normalised to vehicle treated cells).
RPE1 and SUM159 cells expressing a doxycycline-inducible HORMAD1 construct were treated with doxycycline or vehicle. […] Surviving fractions were calculated (normalised to vehicle treated cells). (FIGS. 7a, b and 14c and d). Data from 3 replicas was analysed using 2-way ANOVA. 5 days post drugging, cell viability was estimated using cell titre glo reagent. Surviving fractions were calculated (normalised to vehicle treated cells). Data from 4 replicas was analysed using 2-way ANOVA.
RPE1 cells expressing a doxycycline-inducible HORMAD1 construct were treated with doxycycline or vehicle. […] 5 days post drugging, cell viability was estimated using cell titre glo reagent. Surviving fractions were calculated (normalised to vehicle treated cells).
RPE1 cells expressing a doxycycline-inducible HORMAD1 construct were treated with doxycycline or vehicle in order to induce HORMAD1 expression. […] Using cell titre glo as a measure of cell viability, surviving fractions were calculated (normalised to eribulin alone).
RPE1 cells expressing a doxycycline-inducible HORMAD1 construct were treated with doxycycline or vehicle. […] Using cell titre glo as a measure of cell viability, surviving fractions were calculated (normalised to olaparib alone).

| SMILES | mitotic slippage / mitotic exit in HORMAD1 induced RPE1 cells [1] | growth inhibition (surviving fraction) of HORMAD1 expressing versus HORMAD1-negative RPE1 cells, with eribulin ([2]; increasing doses alongside 0.4 nm eribulin, normalised to eribulin alone) | growth inhibition (surviving fraction) of HORMAD1 expressing versus HORMAD1-negative RPE1 cells, with olaparib ([2]; increasing doses alongside 0.47 μm olaparib, normalised to olaparib alone) | growth inhibition (surviving fraction) of HORMAD1 expressing versus HORMAD1-negative RPE1 cells ([2]; increasing doses, 5 days post drug, cell titre glo, normalised to vehicle) |
| --- | --- | --- | --- | --- |
| CCN(CCO)CCCOc1ccc2c(Nc3cc(CC(=O)Nc4cccc(F)c4)[nH]n3)ncnc2c1 [AZD1152-HQPA] | Very similar results |  |  |  |
| COc1cnccc1Nc1nc(-c2nn(Cc3c(F)cc(OCCO)cc3F)c3ccccc23)ncc1OC [BAY-1816032] |  | more effectively inhibited | more effectively inhibited | more effectively inhibited |
